In patent US10392368B2, “Pyrazolo and triazolo bicyclic compounds as JAK kinase inhibitors” (THERAVANCE BIOPHARMA R&D IP, LLC, priority 2017, dated 2019):

Test system: IL-2 stimulated pSTAT5 in CD4+ T cells
Assay: Inhibition of IL-2 stimulated pSTAT5 in CD4+ T cells isolated from murine splenocytes
Format: cell-based
Conditions: Mus musculus, AlphaLisa, read-out: pIC50, inhibition of IL-2 stimulated pSTAT5 (converted)
Description: The potency of test compounds for inhibition of interleukin-2 (IL-2) stimulated STAT5 phosphorylation was measured in the CD4+ T cells isolated from murine splenocytes using AlphaLisa. Because IL-2 signals through JAK3, this assay provides a measure of JAK3 cellular potency in mouse.
Phosphorylated STAT5 was measured via the AlphaLISA SureFire Ultra pSTAT5 (Tyr694/699) kit (PerkinElmer).
CD4+ T cells were isolated from murine splenocytes via negative selection on a magnetic column (Miltnyi Biotec) and re-suspended in assay media (phenol red-free DMEM (Life Technologies) supplemented with 10% FBS (ATCC)). Cells were seeded at 50,000 cells/well in assay media (2 μL/well). Compounds were serially diluted in DMSO and diluted to 2× final concentration in assay media. Compound was added (4 μl/well) and the cells incubated at 37° C., 5% CO2 for 1 hour, followed by the addition of IL-2 (R&D Systems; final concentration 7 ng/ml) in pre-warmed assay media (2 μL) for 30 minutes. After cytokine stimulation, cells were lysed with 2 μl of 5× AlphaLisa Lysis Buffer (PerkinElmer). The lysate was shaken at 900 rpm for 10 minutes at room temperature (RT). Phosphorylated STAT5 was measured via the pSTAT5 AlphaLisa kit (PerkinElmer). Freshly prepared acceptor bead mixture was dispensed onto lysate (5 ul) under green filtered <100 lux light. Plates were shaken at 900 rpm for 2 mins, briefly spun down, and incubated for 2 hrs at RT in the dark. Donor beads were dispensed (5 μl) under green filtered <100 lux light. Plates were shaken at 900 rpm for 2 mins, briefly spun down, and incubated overnight at RT in the dark. Luminescence was measured with excitation at 689 nm and emission at 570 nm using an EnVision plate reader (PerkinElmer) under green filtered <100 lux light.
To determine the inhibitory potency of test compounds in response to IL-2, the average emission intensity of beads bound to pSTAT5 was measured in primary CD4+ T cells isolated from murine splenocytes. IC50 values were determined from analysis of the inhibition curves of signal intensity vs compound concentration. Data are expressed as pIC50 (negative decadic logarithm IC50) values (mean±standard deviation).

Compound | IC50
C=CC(=O)N1CC(C(C)(C)Oc2cc(-c3ccc(O)cc3)nc3[nH]ncc23)C1 [Compound 20, 1-(3-(2-((6-(4-hydroxyphenyl)-1H-pyrazolo[3,4-b]pyridin-4-yl)oxy)propan-2-yl)azetidin-1-yl)prop-2-en-1-one] | < 1000 nM
C=CC(=O)N1CC(C)(COc2nc(-c3ccc(O)c(F)c3)nc3[nH]ncc23)C1 [Compound 21, 1-(3-(((6-(3-fluoro-4-hydroxyphenyl)-1H-pyrazolo[3,4-d]pyrimidin-4-yl)oxy)methyl)-3-methylazetidin-1-yl)prop-2-en-1-one] | < 1000 nM
C=CC(=O)N1CC(CC)(COc2cc(-c3ccc(O)cc3)nc3[nH]ncc23)C1 [Compound 22, 1-(3-ethyl-3-(((6-(4-hydroxyphenyl)-1H-pyrazolo[3,4-b]pyridin-4-yl)oxy)methyl)azetidin-1-yl)prop-2-en-1-one] | < 1000 nM

Molecular target: T1, JAK3 (Homo sapiens, UniProt P52333)
T1 sequence (P52333 1-1124): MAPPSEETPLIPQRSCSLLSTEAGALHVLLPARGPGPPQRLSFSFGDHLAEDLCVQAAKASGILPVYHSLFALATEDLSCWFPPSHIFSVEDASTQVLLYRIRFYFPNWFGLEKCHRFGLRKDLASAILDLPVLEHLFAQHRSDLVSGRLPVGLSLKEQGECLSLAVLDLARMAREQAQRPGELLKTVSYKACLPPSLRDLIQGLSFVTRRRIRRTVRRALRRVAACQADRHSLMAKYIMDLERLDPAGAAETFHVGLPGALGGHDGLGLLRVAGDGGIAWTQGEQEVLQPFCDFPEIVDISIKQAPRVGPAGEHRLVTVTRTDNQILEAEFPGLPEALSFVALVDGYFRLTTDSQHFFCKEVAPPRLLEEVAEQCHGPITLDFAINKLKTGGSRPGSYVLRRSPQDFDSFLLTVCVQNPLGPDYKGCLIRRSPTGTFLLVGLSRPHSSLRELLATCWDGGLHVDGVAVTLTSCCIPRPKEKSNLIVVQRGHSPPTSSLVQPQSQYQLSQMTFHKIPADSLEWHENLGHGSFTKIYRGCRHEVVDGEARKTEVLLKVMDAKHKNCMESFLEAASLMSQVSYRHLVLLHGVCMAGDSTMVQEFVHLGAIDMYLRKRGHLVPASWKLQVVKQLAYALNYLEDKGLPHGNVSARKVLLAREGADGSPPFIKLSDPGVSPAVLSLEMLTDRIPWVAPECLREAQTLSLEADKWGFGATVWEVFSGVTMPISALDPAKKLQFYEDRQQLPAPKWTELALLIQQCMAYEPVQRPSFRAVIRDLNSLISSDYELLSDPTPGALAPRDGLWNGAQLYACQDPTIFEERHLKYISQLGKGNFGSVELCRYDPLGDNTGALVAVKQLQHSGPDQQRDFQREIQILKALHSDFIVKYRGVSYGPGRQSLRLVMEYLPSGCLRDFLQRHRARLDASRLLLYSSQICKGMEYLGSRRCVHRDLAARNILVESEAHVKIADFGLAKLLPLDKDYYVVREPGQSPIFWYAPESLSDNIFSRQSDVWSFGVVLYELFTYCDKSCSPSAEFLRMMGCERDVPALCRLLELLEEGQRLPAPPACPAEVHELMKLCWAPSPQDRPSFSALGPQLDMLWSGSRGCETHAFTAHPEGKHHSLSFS
Assay: Co-crystal structures bound to human JAK3
Conditions: ATP binding site of human JAK3
Description: Co-crystal structures were obtained for compounds 1, 3 and 4 each bound to human JAK3. The resolutions for the complex structures were at 2.73 Å, 2.80 Å, and 2.64 Å respectively for compound 1, compound 3 and compound 4. […] Based on a distance of less than 3.5 Å of the donor and acceptor atoms four specific hydrogen bonds were identified for each of the ligands, namely to the main chain atoms of Glu903, Leu905 and Phe968 as well as the side chain atoms of Glu871. An additional hydrogen bond was identified for compound 1 to the side chain atoms of Asp 912. […] The S—H moiety of the cysteine residue performs an addition reaction to the Michael system. The observed results of the covalent binding interaction in the crystal structures confirms the irreversible binding nature for each of these ligands to JAK3.

Compound | binding mode in co-crystal structure
CN(C)C/C=C/C(=O)N1CC(COc2cc(-c3ccc(O)cc3)cc3[nH]ncc23)C1 [Compound 1, (E)-4-(dimethylamino)-1-(3-(((6-(4-hydroxyphenyl)-1H-indazol-4-yl)oxy)methyl)azetidin-1-yl)but-2-en-1-one] | covalently bound to Cys909 of JAK3
CN(C)C/C=C/C(=O)N1CC(C(C)(C)Oc2cc(-c3ccc(O)c(Cl)c3)cc3[nH]ncc23)C1 [Compound 3, (E)-1-(3-(2-((6-(3-chloro-4-hydroxyphenyl)-1H-indazol-4-yl)oxy)propan-2-yl)azetidin-1-yl)-4-(dimethylamino)but-2-en-1-one] | covalently bound to Cys909 of JAK3
C=CC(=O)N1CC(COc2nc(-c3ccc(O)cc3)nc3[nH]ncc23)C1 [Compound 4, 1-(3-(((6-(4-hydroxyphenyl)-1H-pyrazolo[3,4-d]pyrimidin-4-yl)oxy)methyl)azetidin-1-yl)prop-2-en-1-one] | covalently bound to Cys909 of JAK3
